{"source": "patent EP0429304A2", "about": "“Pyridone-carboxylic acid derivatives and their use as veterinary medicines” (SHIONOGI SEIYAKU KABUSHIKI KAISHA trading under the name of …, priority 1989, dated 1991)", "key": {"[1]": {"test_system": "TS-resistant strain of MG", "format": "in vivo, chicken", "details": "for Infectious index Left air sack + / Infectious index Left air sack ++ / Infectious index Left air sack +++ / Infectious index Left air sack - / Infectious index Right air sack + / Infectious index Right air sack ++ / Infectious index Right air sack +++ / Infectious index Right air sack -: count of fowl; for Infectious index Left air sack + / Infectious index Left air sack ++ / Infectious index Left air sack +++ / Infectious index Left air sack - / Infectious index Right air sack + / Infectious index Right air sack ++ / Infectious index Right air sack +++ / Infectious index Right air sack - / Number of fowl having air sack lesions: 10-days chicken, 1.2 x 10³ CFU/fowl"}, "[2]": {"test_system": "Hemophilus pleuropneumonia (H.pp) M-1", "experiment": "In vitro sensitivity test (agar dilution method)", "format": "cell-based", "details": "37°C, 20 hours, 10 % CO₂"}, "[3]": {"test_system": "Escherichia coli (E.coli) E-17, chicken-origin strain isolated from the field", "experiment": "In vitro sensitivity test (agar dilution method)", "format": "cell-based", "details": "37°C, 20 to 24 hours", "how_it_was_run": "(§1)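 Bacteria were of animal origin. MS strains were grown by liquid dilution in Frey medium with 12 % pig-serum and 0.01 % βNAD at 37°C for 7 days. S.au was tested by agar dilution on Mueller Hinton agar, 37°C for 20 to 24 hours. P.pis was grown on 1.5 % NaCl heart infusion agar at 25°C for 40 to 48 hours.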"}, "[4]": {"test_system": "Staphylococcus aureus (S.au) 209P", "experiment": "In vitro sensitivity test (agar dilution method)", "format": "cell-based", "details": "37°C, 20 to 24 hours", "how_it_was_run": "as §1"}, "[5]": {"test_system": "Salmonella typhimurium (S.typhi) 13311", "experiment": "In vitro sensitivity test (agar dilution method)", "format": "cell-based", "details": "37°C, 20 to 24 hours"}, "[6]": {"test_system": "Bordetella bronchiseptica (B.br) ABU-1", "experiment": "In vitro sensitivity test (agar dilution method)", "format": "cell-based", "details": "37°C, 20 to 24 hours"}, "[7]": {"test_system": "Escherichia coli (E.coli) JC-2", "experiment": "In vitro sensitivity test (agar dilution method)", "format": "cell-based", "details": "37°C, 20 to 24 hours"}, "[8]": {"test_system": "Hemophilus paragallinarum (H.pg) 221", "experiment": "In vitro sensitivity test (agar dilution method)", "format": "cell-based", "details": "agar dilution, 37°C, 20 hours, 10 % CO₂"}, "[9]": {"test_system": "Hemophilus paragallinarum (H.pg) S-1", "experiment": "In vitro sensitivity test (agar dilution method)", "format": "cell-based", "details": "agar dilution, 37°C, 20 hours, 10 % CO₂"}, "[10]": {"test_system": "Pasteurella piscicida (P.pis) No. 2", "experiment": "In vitro sensitivity test", "format": "cell-based", "details": "25°C, 40 to 48 hours", "how_it_was_run": "(§2)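 Read-out is visual growth after incubation. Conditions were 37°C for 7 days in Frey medium (12 % pig-serum, 0.01 % βNAD; liquid dilution) for MS, and 37°C for 20 to 24 hours on Mueller Hinton agar for S.au. P.pis used 25°C, 40 to 48 hours, on 1.5 % NaCl heart infusion agar.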"}, "[11]": {"test_system": "Streptococcus sp (Str.sp) SNO6119", "experiment": "In vitro sensitivity test", "format": "cell-based", "details": "25°C, 40 to 48 hours"}, "[12]": {"test_system": "Mycoplasma hyopneumoniae (Mh) ST-11", "experiment": "In vitro sensitivity test (liquid dilution method)", "format": "cell-based", "details": "37°C, 7 days"}, "[13]": {"test_system": "Mycoplasma synoviae (MS) 1853", "experiment": "In vitro sensitivity test (liquid dilution method)", "format": "cell-based", "details": "37°C, 7 days", "how_it_was_run": "as §2"}, "[14]": {"test_system": "Mycoplasma gallisepticum (MG) S6", "experiment": "In vitro sensitivity test (liquid dilution method)", "format": "cell-based", "details": "37°C, 7 days"}, "[15]": {"test_system": "Mycoplasma gallisepticum (MG) T-7-T, TS-resistant strain isolated from the field", "experiment": "In vitro sensitivity test (liquid dilution method)", "format": "cell-based", "details": "37°C, 7 days"}, "[16]": {"test_system": "Mycoplasma synoviae (MS) F10-2as", "experiment": "In vitro sensitivity test (liquid dilution method)", "format": "cell-based", "details": "37°C, 7 days", "how_it_was_run": "as §2"}, "[17]": {"test_system": "TS-resistant MG", "experiment": "Experimental MG infection to chicken, through bait", "format": "in vivo"}, "[18]": {"details": "count of fowl, bait 1100 ppm/Day, 9-days chicken, 1.8 x 10³ CFU/fowl"}}, "note": "Like-named read-outs stand apart in the source and are kept apart here."}
{"compound": "NC[C@@]12CCC[C@@H]1CN(c1cc3c(cc1F)c(=O)c(C(=O)O)cn3C1CC1)C2", "note": "(relative stereo) [I-8, 7-[(1R*,5S*)-1-aminomethyl-3-azabicyclo[3.3.0]octan-3-yl]-1-cyclopropyl-6-fluoro-1,4-dihydro-4-oxo-3-quinolinecarboxylic acid]", "values": [{"measurement": "Infectious index Left air sack +", "setting": "[1]; oral 1.56 mg/kg", "result": 0}, {"measurement": "Infectious index Left air sack ++", "setting": "[1]; oral 1.56 mg/kg", "result": 0}, {"measurement": "Infectious index Left air sack +++", "setting": "[1]; oral 1.56 mg/kg", "result": 0}, {"measurement": "Infectious index Left air sack -", "setting": "[1]; oral 1.56 mg/kg", "result": 5}, {"measurement": "Infectious index Right air sack +", "setting": "[1]; oral 1.56 mg/kg", "result": 3}, {"measurement": "Infectious index Right air sack ++", "setting": "[1]; oral 1.56 mg/kg", "result": 2}, {"measurement": "Infectious index Right air sack +++", "setting": "[1]; oral 1.56 mg/kg", "result": 0}, {"measurement": "Infectious index Right air sack -", "setting": "[1]; oral 1.56 mg/kg", "result": 0}, {"measurement": "Infectious index Left air sack +", "setting": "[1]; oral 3.13 mg/kg", "result": 0}, {"measurement": "Infectious index Left air sack ++", "setting": "[1]; oral 3.13 mg/kg", "result": 0}, {"measurement": "Infectious index Left air sack +++", "setting": "[1]; oral 3.13 mg/kg", "result": 0}, {"measurement": "Infectious index Left air sack -", "setting": "[1]; oral 3.13 mg/kg", "result": 5}, {"measurement": "Infectious index Right air sack +", "setting": "[1]; oral 3.13 mg/kg", "result": 1}, {"measurement": "Infectious index Right air sack ++", "setting": "[1]; oral 3.13 mg/kg", "result": 0}, {"measurement": "Infectious index Right air sack +++", "setting": "[1]; oral 3.13 mg/kg", "result": 0}, {"measurement": "Infectious index Right air sack -", "setting": "[1]; oral 3.13 mg/kg", "result": 4}, {"measurement": "Infectious index Left air sack +", "setting": "[1]; oral 6.25 mg/kg", "result": 0}, {"measurement": "Infectious index Left air sack ++", "setting": "[1]; oral 6.25 mg/kg", "result": 0}, {"measurement": "Infectious index Left air sack +++", "setting": "[1]; oral 6.25 mg/kg", "result": 0}, {"measurement": "Infectious index Left air sack -", "setting": "[1]; oral 6.25 mg/kg", "result": 5}, {"measurement": "Infectious index Right air sack +", "setting": "[1]; oral 6.25 mg/kg", "result": 0}, {"measurement": "Infectious index Right air sack ++", "setting": "[1]; oral 6.25 mg/kg", "result": 0}, {"measurement": "Infectious index Right air sack +++", "setting": "[1]; oral 6.25 mg/kg", "result": 0}, {"measurement": "Infectious index Right air sack -", "setting": "[1]; oral 6.25 mg/kg", "result": 5}, {"measurement": "antimicrobial activity compared with ERFX", "setting": "[1]; in vivo, po", "result": "two times more effective than ERFX"}, {"measurement": "Number of fowl having air sack lesions", "setting": "[1]; oral 1.56 mg/kg", "result": 5}, {"measurement": "Number of fowl having air sack lesions", "setting": "[1]; oral 3.13 mg/kg", "result": 1}, {"measurement": "Number of fowl having air sack lesions", "setting": "[1]; oral 6.25 mg/kg", "result": 0}, {"measurement": "complete inihibition of the lesions in air sac at a concentration of", "setting": "[1]; oral administration, MG-infected chicken", "result": "about 3.13 mg/kg"}, {"measurement": "In vitro Sensitivity Test H.pp M-1", "setting": "[2]", "result": 0.05, "unit": "µg/mL"}, {"measurement": "In vitro Sensitivity Test E.coli E-17", "setting": "[3]", "result": 0.05, "unit": "µg/ml"}, {"measurement": "In vitro Sensitivity Test S.au 209P", "setting": "[4]", "result": "<0.0125", "unit": "µg/mL"}, {"measurement": "In vitro Sensitivity Test S.typhi 13311", "setting": "[5]", "result": 0.2, "unit": "µg/mL"}, {"measurement": "In vitro Sensitivity Test B.br ABU-1", "setting": "[6]", "result": 1.56, "unit": "µg/mL"}, {"measurement": "In vitro Sensitivity Test E.coli JC-2", "setting": "[7]", "result": 0.05, "unit": "µg/mL"}, {"measurement": "In vitro Sensitivity Test H.pg 221", "setting": "[8]", "result": 0.2, "unit": "µg/mL"}, {"measurement": "In vitro Sensitivity Test H.pg S-1", "setting": "[9]", "result": 0.2, "unit": "µg/mL"}, {"measurement": "In vitro Sensitivity Test P.pis No. 2", "setting": "[10]", "result": 0.78, "unit": "µg/mL"}, {"measurement": "In vitro Sensitivity Test Str.sp SNO6119", "setting": "[11]", "result": 0.78, "unit": "µg/mL"}, {"measurement": "In vitro Sensitivity Test Mh ST-11", "setting": "[12]", "result": "<0.025", "unit": "µg/mL"}, {"measurement": "In vitro Sensitivity Test MS 1853", "setting": "[13]", "result": 0.1, "unit": "µg/mL"}, {"measurement": "In vitro Sensitivity Test MG S6", "setting": "[14]", "result": "<0.00313", "unit": "µg/mL"}, {"measurement": "In vitro Sensitivity Test MG T-7-T", "setting": "[15]", "result": 0.00625, "unit": "µg/mL"}, {"measurement": "In vitro Sensitivity Test MS F10-2as", "setting": "[16]", "result": 0.1, "unit": "µg/ml"}]}
{"compound": "Tylosin® [TSP, reference compound]", "values": [{"measurement": "In vitro Sensitivity Test H.pp M-1", "setting": "[2]", "result": 25.0, "unit": "µg/mL"}, {"measurement": "In vitro Sensitivity Test S.au 209P", "setting": "[4]", "result": 0.39, "unit": "µg/mL"}, {"measurement": "In vitro Sensitivity Test S.typhi 13311", "setting": "[5]", "result": 0.39, "unit": "µg/mL"}, {"measurement": "In vitro Sensitivity Test E.coli JC-2", "setting": "[7]", "result": 25.0, "unit": "µg/mL"}, {"measurement": "Number of fowl having air sack lesions", "setting": "[17]; bait 1100 ppm/Day, 9-days chicken, 1.8 x 10³ CFU/fowl", "result": 5}, {"measurement": "Infectious index Left air sack +", "setting": "[17]; [18]", "result": 1}, {"measurement": "Infectious index Left air sack ++", "setting": "[17]; [18]", "result": 0}, {"measurement": "Infectious index Left air sack +++", "setting": "[17]; [18]", "result": 0}, {"measurement": "Infectious index Left air sack -", "setting": "[17]; [18]", "result": 4}, {"measurement": "Infectious index Right air sack +", "setting": "[17]; [18]", "result": 3}, {"measurement": "Infectious index Right air sack ++", "setting": "[17]; [18]", "result": 2}, {"measurement": "Infectious index Right air sack +++", "setting": "[17]; [18]", "result": 0}, {"measurement": "Infectious index Right air sack -", "setting": "[17]; [18]", "result": 0}, {"measurement": "inhibition of lesions in air sacs", "setting": "[17]; through bait, 1100 ppm", "result": "could not inhibit lesions in air sacs"}, {"measurement": "In vitro Sensitivity Test Mh ST-11", "setting": "[12]", "result": 0.1, "unit": "µg/mL"}, {"measurement": "In vitro Sensitivity Test MS 1853", "setting": "[13]", "result": 0.1, "unit": "µg/mL"}, {"measurement": "In vitro Sensitivity Test MG S6", "setting": "[14]", "result": 0.05, "unit": "µg/mL"}, {"measurement": "In vitro Sensitivity Test MG T-7-T", "setting": "[15]", "result": 6.25, "unit": "µg/mL"}, {"measurement": "In vitro Sensitivity Test MS F10-2as", "setting": "[16]", "result": 0.1, "unit": "µg/ml"}]}
